Test results: the supplement of paper PMC11451515

Tested on: NOMO1
Assay: cell viability relative to DMSO control; higher = less cytotoxic
Conditions: 48 h
Procedure, shortened: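 NOMO1 or SEM cells were plated at 500 cells/well and P12-Ichikawa cells at 1000 cells/well in 1536-well plates (5 μl), after each leukemia line had been adapted for at least four passages in each medium. Pin dosing delivered library compounds in DMSO at 11 threefold concentrations, 47 μM to 0.79 nM. CellTiter-Glo One luminescence was read after 48 h at 37°C. Viability is reported as a per-plate percentage of DMSO wells, with cell-free wells as background.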

[1] = HPLM + 10% dialyzed FBS, 0.000781 µM
[2] = HPLM + 10% dialyzed FBS, 0.00234 µM
[3] = HPLM + 10% dialyzed FBS, 0.00702 µM
[4] = HPLM + 10% dialyzed FBS, 0.0211 µM
[5] = HPLM + 10% dialyzed FBS, 0.0632 µM
[6] = HPLM + 10% dialyzed FBS, 0.19 µM
[7] = HPLM + 10% dialyzed FBS, 0.569 µM
[8] = HPLM + 10% dialyzed FBS, 1.71 µM
[9] = HPLM + 10% dialyzed FBS, 5.12 µM
[10] = HPLM + 10% dialyzed FBS, 15.4 µM
[11] = HPLM + 10% dialyzed FBS, 46.1 µM
[12] = RPMI 5 mM glucose + 10% FBS, 0.000781 µM
[13] = RPMI 5 mM glucose + 10% FBS, 0.00234 µM
[14] = RPMI 5 mM glucose + 10% FBS, 0.00702 µM
[15] = RPMI 5 mM glucose + 10% FBS, 0.0211 µM
[16] = RPMI 5 mM glucose + 10% FBS, 0.0632 µM
[17] = RPMI 5 mM glucose + 10% FBS, 0.19 µM
[18] = RPMI 5 mM glucose + 10% FBS, 0.569 µM
[19] = RPMI 5 mM glucose + 10% FBS, 1.71 µM
[20] = RPMI 5 mM glucose + 10% FBS, 5.12 µM
[21] = RPMI 5 mM glucose + 10% FBS, 15.4 µM
[22] = RPMI 5 mM glucose + 10% FBS, 46.1 µM
[23] = RPMI 5 mM glucose + 10% dialyzed FBS, 0.000781 µM
[24] = RPMI 5 mM glucose + 10% dialyzed FBS, 0.00234 µM
[25] = RPMI 5 mM glucose + 10% dialyzed FBS, 0.00702 µM
[26] = RPMI 5 mM glucose + 10% dialyzed FBS, 0.0211 µM
[27] = RPMI 5 mM glucose + 10% dialyzed FBS, 0.0632 µM
[28] = RPMI 5 mM glucose + 10% dialyzed FBS, 0.19 µM
[29] = RPMI 5 mM glucose + 10% dialyzed FBS, 0.569 µM
[30] = RPMI 5 mM glucose + 10% dialyzed FBS, 1.71 µM
[31] = RPMI 5 mM glucose + 10% dialyzed FBS, 5.12 µM
[32] = RPMI 5 mM glucose + 10% dialyzed FBS, 15.4 µM
[33] = RPMI 5 mM glucose + 10% dialyzed FBS, 46.1 µM

SMILES	cell viability [1] [%]	cell viability [2] [%]	cell viability [3] [%]	cell viability [4] [%]	cell viability [5] [%]	cell viability [6] [%]	cell viability [7] [%]	cell viability [8] [%]	cell viability [9] [%]	cell viability [10] [%]	cell viability [11] [%]	cell viability [12] [%]	cell viability [13] [%]	cell viability [14] [%]	cell viability [15] [%]	cell viability [16] [%]	cell viability [17] [%]	cell viability [18] [%]	cell viability [19] [%]	cell viability [20] [%]	cell viability [21] [%]	cell viability [22] [%]	cell viability [23] [%]	cell viability [24] [%]	cell viability [25] [%]	cell viability [26] [%]	cell viability [27] [%]	cell viability [28] [%]	cell viability [29] [%]	cell viability [30] [%]	cell viability [31] [%]	cell viability [32] [%]	cell viability [33] [%]
CC[C@H](/C=C/[C@@H](C)[C@H]1CC[C@H]2[C@@H]3CC=C4C[C@@H](O)CC[C@]4(C)[C@H]3CC[C@]12C)C(C)C	104	112	110	98.9	104	102	97.3	96.7	80.6	73.7	58.2	89.3	94.3	101	105	92.9	90.7	88.8	92.8	81.1	81.3	78.7	98.2	89.4	91.1	84.5	96.1	89.5	86	95.1	94.5	68.3	69.6
C[C@]12COC(=O)C[C@@H]1CC[C@@H]1[C@@H]2CC[C@@]2(C)[C@H]1CC[C@]2(C)O	98	109	103	91.1	118	98	98.6	103	104	97.1	80	90.7	87.1	86.4	97.3	101	103	95.1	101	90.8	81.2	84.1	97.6	101	91.4	102	103	92.2	78.2	92	88.3	92.4	83.1
CC[S+](=O)([O-])c1cccc(-c2cc(C(=O)NC3CCN(C)CC3)c(C)c3[nH]c4ncc(C)cc4c23)c1	118	128	120	136	126	89.9	115	68.2	52.6	51	6.96	114	115	114	135	128	111	77.3	83.9	92.6	47	8.64	124	122	130	128	138	87.7	80.7	86.8	80.3	48.3	8.02
COc1ccc([S+](=O)([O-])N(C(C)=O)c2ccccc2/C=C/c2cc[n+]([O-])cc2)cc1												116	106	129	114	105	112	130	44.5	21	24.4	22.6	108	111	116	126	115	121	122	46.4	25.3	26.8	28.4
C[C@H]1COC2=C3N1\C=C(C(O)=O)/C(=O)C3=CC(=C2N4CCN(C)CC4)F	124	123	128	114	122	106	113	108	94.8	85.9	61												122	112	127	124	124	115	112	112	98.1	98.7	72.9
CC(C)N[C@@H]1CCn2c(=O)[nH]c3cccc(c32)[C@H]1O												119	110	121	119	111	108	117	104	105	103	55.6											
CN1CCN(C2=Nc3cc(Cl)ccc3Nc3ccccc32)CC1	103	100	110	111	116	119	113	132	112	106	59.3	98.6	94.3	102	98.4	107	101	103	96.3	106	106	102	87.5	99.6	99.7	90.1	115	106	110	99.3	103	97.9	78.4
C[C@](Cc1c[nH]c2ccccc12)(NC(=O)OC1C2CC3CC(C2)CC1C3)C(=O)NC[C@H](NC(=O)CCC(=O)O)c1ccccc1 (stereo not given in full)	123	94	130	135	148	142	134	145	157	154	141	114	128	120	126	120	127	125	126	151	153	147	106	123	120	132	132	133	153	129	139	147	153
